Assays:
[1] = log P by HPLC on reversed-phase column (C 18), EEC Directive 79/831 Annex V.A8; type: physicochemical; conditions: HPLC on reversed-phase column (C 18); 40° C.; 0.1% aqueous formic acid and acetonitrile; linear gradient 10% to 90% acetonitrile
How it was run: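 Compounds are eluted at 40° C using 0.1% aqueous formic acid and acetonitrile in a linear gradient from 10% to 90% acetonitrile. Unbranched alkan-2-ones bearing 3 to 16 carbons with known log P serve as calibrants. Each log P is interpolated linearly from retention times of the two bracketing alkanones.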

Sphaerotheca fuliginea = assay: In vivo preventive test on Sphaerotheca fuliginea (cucumber); conditions: 500 ppm of active ingredient, evaluated 7 days after inoculation
How it was run: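 Active compound in DMF with alkylarylpolyglycolether emulsifier, diluted in water and sprayed on young cucumber plants at the stated rate. One day later, plants inoculated with S. fuliginea spore suspension and kept at about 23 °C, 70% RH; efficacy scored 7 days post-inoculation, 0% = untreated, 100% = no disease.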

Alternaria solani = assay: In vivo preventive test on Alternaria solani (tomato); conditions: 500 ppm of active ingredient, evaluated 7 days after inoculation
How it was run: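 Young tomato plants were sprayed preventively with compound in DMF/alkylarylpolyglycolether diluted in water, then inoculated one day later with A. solani spores. Incubation was 1 day at about 22 °C and 100% RH, then about 20 °C and 96% RH. Efficacy was scored 7 days after inoculation (0% = untreated control, 100% = no disease).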

Venturia inaequalis = assay: In vivo preventive test on Venturia inaequalis (apple scab); conditions: 100 ppm of active ingredient, evaluated 10 days after inoculation
Description: (§1) Solvent: 24.5 parts by weight of acetone • 24.5 parts by weight of N,N-dimethylacetamide Emulsifier: 1 part by weight of alkylaryl polyglycol ether To produce a suitable preparation of active compound, 1 part by weight of active compound is mixed with the stated amounts of solvent and emulsifier, and the concentrate is diluted with water to the desired concentration. To test for preventive activity, young plants are sprayed with the preparation of active compound at the stated rate of application. After the spray coating has dried on, the plants are inoculated with an aqueous conidia suspension of the causal agent of apple scab (Venturia inaequalis) and then remain for 1 day in an incubation cabinet at approximately 20° C. and a relative atmospheric humidity of 100%. The plants are then placed in a greenhouse at approximately 21° C. and a relative atmospheric humidity of approximately 90%. The test is evaluated 10 days after the inoculation. 0% means an efficacy which corresponds to that of the untreated control, while an efficacy of 100% means that no disease is observed.

Uromyces appendiculatus = assay: In vivo preventive test on Uromyces appendiculatus (bean rust); conditions: 100 ppm of active ingredient, evaluated 10 days after inoculation
Description: as §1, with “spore” for “conidia”, “bean rust (Uromyces appendiculatus)” for “apple scab (Venturia inaequalis)”

[2] = test system: Blumeria graminis f. sp. hordei; assay: In vivo preventive test on Blumeria graminis (barley); conditions: 500 ppm of active ingredient, evaluated 7 days after inoculation
Description: Solvent: 49 parts by weight of N,N-dimethylacetamide Emulsifier: 1 part by weight of alkylaryl polyglycol ether To produce a suitable preparation of active compound, 1 part by weight of active compound or active compound combination is mixed with the stated amounts of solvent and emulsifier, and the concentrate is diluted with water to the desired concentration. To test for preventive activity, young plants are sprayed with the preparation of active compound or active compound combination at the stated rate of application. After the spray coating has been dried, the plants are dusted with spores of Blumeria graminis f. sp. hordei. The plants are placed in the greenhouse at a temperature of approximately 18° C. and a relative atmospheric humidity of approximately 80% to promote the development of mildew pustules. The test is evaluated 7 days after the inoculation. 0% means an efficacy which corresponds to that of the untreated control, while an efficacy of 100% means that no disease is observed.

[3] = test system: Fusarium nivale (var. majus); assay: In vivo preventive test on Fusarium nivale (wheat); conditions: 500 ppm of active ingredient, evaluated 5 days after inoculation
Description: Solvent: 49 parts by weight of N,N-dimethylacetamide Emulsifier: 1 part by weight of alkylaryl polyglycol ether To produce a suitable preparation of active compound, 1 part by weight of active compound or active compound combination is mixed with the stated amounts of solvent and emulsifier, and the concentrate is diluted with water to the desired concentration. To test for preventive activity, young plants are sprayed with the preparation of active compound or active compound combination at the stated rate of application. After the spray coating has been dried, the plants are slightly injured by using a sandblast and afterwards they are sprayed with a conidia suspension of Fusarium nivale (var. majus). The plants are placed in the greenhouse under a translucent incubation cabinet at a temperature of approximately 10° C. and a relative atmospheric humidity of approximately 100%. The test is evaluated 5 days after the inoculation. 0% means an efficacy which corresponds to that of the untreated control, while an efficacy of 100% means that no disease is observed.

Row | Compound | logP [1] | Efficacy (Sphaerotheca fuliginea) [%] | Efficacy (Alternaria solani) [%] | Efficacy (Venturia inaequalis) [%] | Efficacy (Uromyces appendiculatus) [%] | Efficacy [2] [%] | Efficacy [3] [%]
1 | CCC(c1ccccc1)C1CCCCN1C(=O)c1c(C(F)F)nn(C)c1F (stereo not shown) [Example 136] | 3.59 | 98 | 100 | 100 | 78 | 100 | 86
2 | CCC(c1ccccc1)C1CCCCN1C(=S)c1c(C(F)F)nn(C)c1F (stereo not shown) [Example 140] | 4.39 | 100 | 100 | 100 | 94 | 100 | 71

Further lines, with some results ahead:

Row | logP [1] | Compound | Efficacy (Sphaerotheca fuliginea) [%] | Efficacy (Alternaria solani) [%] | Efficacy (Venturia inaequalis) [%] | Efficacy (Uromyces appendiculatus) [%] | Efficacy [2] [%] | Efficacy [3] [%]
3 | 3.23 | Cc1cc(C)cc(C2CCCCN2C(=O)c2c(C)nn(C)c2F)c1 (stereo not shown) [Example 10] | 95 | 90 | 100 | 100 | 88 | 88
4 | 3.62 | CCc1nn(C)c(F)c1C(=O)N1CCCCC1c1cc(C)cc(C)c1 (stereo not shown) [Example 11] | 95 | 100 | 100 | 98 | 80 | 83
5 | 3.35 | CCc1nn(C)c(F)c1C(=O)N1CCCCC1c1ccc(Cl)cc1 (stereo not shown) [Example 54] |  | 95 | 98 | 96 | 70 | 71
